Laboratory results as given in paper PMC5634595, “Properties of halogenated and sulfonated porphyrins relevant for the selection of photosensitizers in anticancer and antimicrobial therapies” (PLoS ONE, 2017).

Legend:
[1] = target: HSA (Homo sapiens, UniProt P02768); test: Binding to HSA by fluorescence quenching (Stern-Volmer, Scatchard)
Method: The binding of the PS to HSA was studied by spectrofluorometry at room temperature. An aqueous (phosphate buffer saline, PBS) solution of HSA was titrated with varying concentrations of the respective porphyrin solutions. HSA was excited at 295 nm and fluorescence was recorded between 300 nm and 400 nm. The systematic lowering of HSA fluorescence with increasing photosensitizer concentrations was noted and used in the determination of the binding constants and the number of binding sites on HSA according to Scatchard equation. The changes in HSA fluorescence intensity were related to porphyrin concentrations by the Stern-Volmer relationship. The binding constant (Kb) of PS to lipoproteins was also determined using the spectroscopic titration method. The sets of steady-state emission spectra of PBS solutions with different concentrations of HDL and LDL, to which the porphyrin (5 μM) was added were measured. The fluorescence intensity of the dye increased upon its partitioning into the lipoproteins. To obtain Kb, F versus [L] data were plotted and fitted to by a nonlinear regression routine.

[2] = tested on: A549 cells; test: Dark cytotoxicity, MTT; assay type: cell-based, human; conditions: A549, 100 μM, 24 h
Method: The studies were performed on human lung adenocarcinoma (A549), murine colon carcinoma (CT26) and murine endothelial/vascular epithelium (2H11) cell lines. A549, CT26 and 2H11 cells were grown in full-strength DMEM with 4.5 g/L glucose, L-glutamine, sodium pyruvate and 3.7 g/L NaHCO3 (BioTech) with addition of 10% fetal bovine serum (BioTech, Poland) and supplemented by antibiotics (penicillin/streptomycin). Before the experiments, the cells were washed with PBS, removed by trypsinization, then re-plated into microplate (or culture flask) with appropriate cells density and maintained in a humidified atmosphere at 37 °C and 5% CO2.
MTT cytotoxicity assay (which determines the mitochondrial activity), based upon the ability of living cells to reduce (3-(4,5-dimethylthiazol-2-yl)2,5-diphenyl tetrazolium bromide (MTT) into formazan was used to assess photosensitizer-mediated cytotoxicity. Two identical 96-well plates with A549, CT26 or 2H11 cell cultures seeded on 96-plate microplate (10^4 per well) were used for each experiment. When the cells were attached to the plates, PS solution in growth medium (DMSO<0.5%) at concentrations between 0.1 to 100 μM was added to the culture. Treated cultures were incubated for optimal time (estimated experimentally) at 37°C in the dark. […] Data were expressed as mean absorbance value of six samples and standard error of the mean.

[3] = tested on: E. coli (K12); test: Photodynamic inactivation of microorganisms, CFU; assay type: cell-based; conditions: PDI 10 J/cm^2, 420±20 nm, concentration not given
Method: (§1) The microorganisms used in PDI were: S. aureus (8325–4), E. faecalis (ATCC29212), E. coli (K12), P. aeruginosa (ATCC19660), S. marcescens (ATCC14756) and C. albicans (DAY286). The planctonic bacteria cells were cultured in brain heart infusion broth (Sigma-Aldrich) and LB Broth/Lennox (BioShop Lab Science Products) in an orbital incubator (37°C, 130 rpm), until the optical density reached 0.5, which corresponds to approximately 10^7 CFU per mL. The fungal yeasts were cultured in YPD Broth (BioShop) with overnight aeration at 30°C to reach ca. 10^6 CFU/mL. For PDI experiments cell suspensions of bacteria or fungal yeasts were incubated with various concentrations of the porphyrins at pH 7.4 (PBS) for 1 h in the dark at room temperature. Aliquots (1 mL) were transferred to a 12-well plate and illuminated with a blue light. We used blue-LED array (420±20 nm) to deliver a light dose of 10 J/cm^2 (measured with a power meter). Cells treated with photosensitizers in the dark were incubated covered with aluminum foil for the same time as the PDI groups (1 h). After illumination (or dark incubation) samples were shaken, diluted in PBS, mixed and plated (LB agar). Aliquots were taken from each well to determine the CFU value. Plates were streaked in triplicate and incubated for 12–36 h at 30 °C (for fungal yeasts) or 37 °C (for bacteria) in the dark to allow colony formation.

[4] = tested on: P. aeruginosa (ATCC19660); test: Photodynamic inactivation of microorganisms, CFU; assay type: cell-based; conditions: PDI 10 J/cm^2, 420±20 nm, concentration not given
Method: as §1

[5] = tested on: S. aureus (8325–4); test: Photodynamic inactivation of microorganisms, CFU; assay type: cell-based; conditions: 20 μM, 10 min irradiation (10 J/cm^2, 420±20 nm)
Method: as §1

HSA, sequence (P02768 25-609): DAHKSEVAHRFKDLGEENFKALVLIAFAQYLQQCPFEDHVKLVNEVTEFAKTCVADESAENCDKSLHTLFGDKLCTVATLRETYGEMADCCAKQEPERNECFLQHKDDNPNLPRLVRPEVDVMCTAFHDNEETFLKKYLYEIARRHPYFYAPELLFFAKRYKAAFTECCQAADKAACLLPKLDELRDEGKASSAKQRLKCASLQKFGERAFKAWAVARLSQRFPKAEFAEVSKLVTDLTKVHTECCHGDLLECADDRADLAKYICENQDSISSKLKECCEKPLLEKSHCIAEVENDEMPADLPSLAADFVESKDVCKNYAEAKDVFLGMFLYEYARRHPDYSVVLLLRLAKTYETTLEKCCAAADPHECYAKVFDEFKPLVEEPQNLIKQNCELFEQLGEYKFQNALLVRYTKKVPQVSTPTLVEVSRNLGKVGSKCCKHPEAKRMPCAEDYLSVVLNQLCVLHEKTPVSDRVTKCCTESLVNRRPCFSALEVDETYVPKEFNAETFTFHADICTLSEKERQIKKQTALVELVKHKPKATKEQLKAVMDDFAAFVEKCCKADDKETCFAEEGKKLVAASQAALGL

SMILES: O=S(=O)(O)c1ccc(F)c(-c2c3nc(c(-c4c(F)ccc(S(=O)(=O)O)c4F)c4ccc([nH]4)c(-c4c(F)ccc(S(=O)(=O)O)c4F)c4nc(c(-c5c(F)ccc(S(=O)(=O)O)c5F)c5ccc2[nH]5)C=C4)C=C3)c1F [F2POH, 5,10,15,20-tetrakis(2,6-difluoro-3-sulfophenyl)porphyrin]
- KSV (Stern-Volmer constant), HSA ([1]; HSA fluorescence quenching, PBS, room temperature): 2.24 10^5M^-1
- n (number of binding sites), HSA ([1]; Scatchard analysis): 1
- Cytotoxicity in the dark [2]: 25%
- Decrease in survival [3]: 1.5–2 logs
- Decrease in survival / bacteria CFU killing [4]: 1.5–2 logs
- Reduction in colony forming units (CFU) [5]: 6 logs
